From patent US4337760A, “Method for the treatment of tumors with β-glucuronidase activity dependent pharmaceuticals” (Schwimmer; Adolf, priority 1979, dated 1982)

Tests used:
β-glucuronidase [1] = assay: Incubation with β-glucuronidase; format: biochemical
Description: The free acid form of the compound was formed by treating the 2,4-dinitrophenyl-methyl(tri-O-acetyl-β-D-glucopyranosyl bromide)-uronate with a one-half molar amount of barium hydroxide to produce the barium salt. This barium salt of the glucuronide precipitates as a white amorphous material. An equimolar solution of H2 SO4 releases the free glucuronide. Distillation of the supernatant yielded bright yellow-brown crystals having a melting point of 179°-180° C.

[2] = alkaline vs acid pH; cited from earlier work
β-glucuronidase [3] = settings: cited from earlier work
[4] = Acute intravenous toxicity to rabbits, full scale test; format: in vivo, NZW rabbits; settings: for acute median lethal intravenous dose (LD 50): 10% solution, 95% confidence limits, method of Weil
Description: (§1) NZW rabbits in the weight range of 2,000 to 3,200 g for females and 2,200 to 3,800 g for males were injected intravenously with mandelonitrile β-D-glucuronic acid solution. Rabbits injected with saline alone served as the control. The mandelonitrile β-D-glucuronic acid solution contained 10% mandelonitrile.
(§2) During the 14 day observation period a record was kept of all mortalities and signs of toxicity.
Dosing was then extended to larger groups of rabbits (5 males and 5 females per group) in order to locate the median lethal dose more precisely.
All the deaths of all the groups occurred within 3 hours after dosing.
The acute median lethal intravenous dose (LD 50) and its 95% confidence limints calculated by the method of Weil, C. S., 1952, Biometrics, 8:249, to rabbits of mandelonitrile-β-D-glucuronic acid 10% solution are calculated to be: […]

[5] = Acute intravenous toxicity to rabbits, range finding screen; format: in vivo, NZW rabbits; settings: i.v.; for Mortality ratio: 14 day observation
Description: as §1, §2

trophoblastic cells = settings: reported; cited from earlier work
[6] = in vivo; cited from earlier work

## O=C(O)[C@H]1O[C@@H](Oc2ccc([N+](=O)[O-])cc2[N+](=O)[O-])[C@H](O)[C@@H](O)[C@@H]1O [2,4-dinitrophenol-β-D-glucuronic acid]
β-glucuronidase [1]
  product on incubation with β-glucuronidase: produced 2,4-dinitrophenol

## Cc1cc(O)cc(C)c1Cl [4-chloro-3,5-xylanol]
[2]
  pH-dependent solubility: water soluble at alkaline pH's and lipid-soluble at acid pH's

## Oc1c(I)cc(Cl)c2cccnc12 [5-chloro-7-iodo-8-quinolinol]
[2]
  pH-dependent solubility: water soluble at alkaline pH's and lipid-soluble at acid pH's

## N#C[C@H](O[C@@H]1O[C@H](CO[C@@H]2O[C@H](CO)[C@@H](O)[C@H](O)[C@H]2O)[C@@H](O)[C@H](O)[C@H]1O)c1ccccc1 [amygdalin]
β-glucuronidase [3]
  splitting by the enzyme β-glucuronidase: cannot be split

## N#CC(O[C@@H]1O[C@H](C(=O)O)[C@@H](O)[C@H](O)[C@H]1O)c1ccccc1 (stereo partly drawn) [mandelonitrile β-D-glucuronic acid, Mandelonitrile β-D-glucuronic acid]
[4]; all groups, i.v.
  Time of all the deaths of all the groups after dosing: ≤ 3 h
[4]; believed, from the rabbit data
  maximum safe dose: ~0.44 ml/kg body weight
[4]; females
  acute median lethal intravenous dose (LD 50): 0.6873 (0.6442-0.7304) ml/kg body weight
[4]; females, i.v., 0.44 ml/kg
  Mortality ratio: 0/5
[4]; females, i.v., 0.66 ml/kg
  Mortality ratio: 2/5
  Time of death after dosing: No of hours: < 3 h
  Time of death after dosing: No. of animals: 2 animals
[4]; females, i.v., 1.0 ml/kg
  Mortality ratio: 5/5
  Time of death after dosing: No of hours: < 3 h
  Time of death after dosing: No. of animals: 5 animals
[4]; females, i.v., 1.5 ml/kg
  Mortality ratio: 5/5
  Time of death after dosing: No of hours: < 3 h
  Time of death after dosing: No. of animals: 5 animals
[4]; females, i.v., 2.25 ml/kg
  Mortality ratio: 5/5
  Time of death after dosing: No of hours: < 3 h
  Time of death after dosing: No. of animals: 5 animals
[4]; following 14 days
  Clinical symptoms of surviving animals: did not show any clinical symptoms
[4]; gross pathology
  Autopsy of all animals: did not show clear gross pathological changes
[4]; males
  acute median lethal intravenous dose (LD 50): 0.8419 (0.7809-0.9029) ml/kg body weight
[4]; males, i.v., 0.44 ml/kg
  Mortality ratio: 0/5
[4]; males, i.v., 0.66 ml/kg
  Mortality ratio: 2/5
  Time of death after dosing: No of hours: < 3 h
  Time of death after dosing: No. of animals: 2 animals
[4]; males, i.v., 1.0 ml/kg
  Mortality ratio: 3/5
  Time of death after dosing: No of hours: < 3 h
  Time of death after dosing: No. of animals: 3 animals
[4]; males, i.v., 1.5 ml/kg
  Mortality ratio: 4/5
  Time of death after dosing: No of hours: < 3 h
  Time of death after dosing: No. of animals: 4 animals
[4]; males, i.v., 2.25 ml/kg
  Mortality ratio: 5/5
  Time of death after dosing: No of hours: < 3 h
  Time of death after dosing: No. of animals: 5 animals
[4]; observed 2 minutes after dosing, i.v.
  Signs of reaction to treatment: ataxia and paralysis
[4]; two minutes after the signs of reaction, high dose group
  Early deaths: a few animals of the high dose group died
[5]; 0.25 ml/kg
  Mortality ratio: 0/2
[5]; 0.5 ml/kg
  Mortality ratio: 1/2
[5]; 1.0 ml/kg
  Mortality ratio: 2/2
[5]; 2.0 ml/kg
  Mortality ratio: 2/2
[5]; 4.0 ml/kg
  Mortality ratio: 2/2
[5]; rabbits, preliminary range finding
  median lethal intravenous dose (LD-50): 0.23-2 ml per kg body weight

## C[C@]12CC[C@H]3[C@@H](CCC4=CC(=O)CC[C@@]43C)[C@@H]1CC[C@@H]2O [testosterone]
Trophoblastic cells
  β-glucuronidase activity in trophoblastic cells: induce β-glucuronidase activity

## Neomycin
[6]
  known adverse effect: cannot be administered internally because of its toxicity
